# Data reported in patent US9623031B2, “Compositions, methods and kits for treating cancer” (priority 2011, dated 2017).
# Tests used:
# [1] = tested on: primary human AML cells; LSCs (CD34+CD38−CD123+); experiment: Apoptosis of primary human AML cells and AML LSCs (annexin V); type: cell-based
# Description: In this experiment, 110,000/well primary AML cells were cultured in above specified media for 6 and 12 hrs. Cells were collected and washed once with ice cold PBS. The cells were resuspended in 200 ul 1× Apoptosis buffer with annexin-V PE to all tubes. The cells were washed in PBS and resuspended in 600 ul PBS and transfer into flow tubes and analyzed for apoptosis (Annexin V+ cells) on FC-500. […] In this experiment, 110,000/well AML cells were cultured in earlier mentioned media for 6 and 12 hrs. Cells were collected and washed once in PBS and resuspended in 200 ul PBS and blocked with FC receptor antibody 10 mins RT. The following antibodies were added: CD38, CD123, CD34, CD117 (BD bioscience) for 1 hr on ice. Cells were washed in PBS once and resuspended in 200 ul of apoptotic buffer, and annexin V was added and incubated for 15 mins. Apoptotic cells (Annexin V+ cells) were counted by flow cytometry. […] Cells were collected and washed once in PBS and resuspended in 200 ul PBS and blocked with FC receptor antibody 10 mins RT. The following antibodies were added: CD38, CD123, CD34 (BD bioscience) for 1 hr on ice. Cells were washed in PBS once and resuspended in 200 ul of apoptotic buffer, and annexin V was added and incubated for 15 mins. Apoptotic cells (Annexin V+ cells) were counted by flow cytometry.
# Referring to the results shown in FIG. 16, these experiments were performed with primary AML stem cells isolated from a patient. […] In an identical experiment, the cells were also treated with a synthetic DP agonist, ZK118182 (100 nM). Apoptosis of cells (by annexin V staining) was measured using flow cytometry.
# residual FV-LSCs = experiment: Secondary transplants from treated FV-LSC mice into BALB/c-Stk−/− recipients; type: in vivo, mouse; conditions: donor cells from treated FV-LSC transplanted mice
# Description: Secondary transplants to test for residual LSCs after treatment with Δ^12-PGJ3: For the CML model, B6.SJLPtprca Pep3b/BoyJ (CD45.1^+) mice were treated with 5-FU and bone marrow cells enriched in cycling HSCs were isolated followed by infection with MIGR-BCR-ABL virus or control MSCV-GFP virus as described above. The cells were transplanted into C57BL/6 (CD45.2) recipient mice as mentioned earlier. The mice were treated with Δ^12-PGJ3 or vehicle control as indicated. Two weeks after treatment, spleen cells were isolated and transplanted into irradiated secondary C57BL/6 (CD45.2) recipients as described above. Two weeks after secondary transplant, mice were analyzed for WBC counts, splenomegaly and the presence of GFP^+ or CD45.1 donor cells in the bone marrow and spleen by flow cytometry. Secondary transplants were also done with FV infected mice treated with Δ^12-PGJ3 or vehicle control. BALB/c mice were infected with Friend virus as described above. The mice were treated with Δ^12-PGJ3 or vehicle control as indicated. Two weeks after treatment, spleen cells isolated from FV-infected mice and transplanted into BALB/c-Stk^−/− recipient mice (1×10^5 cells per mouse). Five weeks post transplant, the mice with secondary transplants were tested for WBC counts, splenomegaly and for the presence of M34^+Kit^+Sca1^+FV-LSCs by flow cytometry.
# [2] = tested on: FV-LSCs transplanted into BALB/c-Stk^−/− mice
# Description: Transplant of FV-LSCs into BALB/c-Stk^−/− mice: FV-LSCs were generated as described above. 2.5×10^5 FV-LSCs were transplanted into BALB/c-Stk^−/− mice by retro-orbital injection. Six weeks after transplant the mice were treated with CyPGs or vehicle control as indicated in the text.
# Treatment of Mice with PGs: Mice with FV-induced erythroleukemia or MIGR-BCR-ABL induced CML were treated on the indicated days with CyPGs. Mice were treated with a daily intraperitoneal injection of Δ^12-PGJ3 (0.01-0.1 mg/kg), 15d-PGJ2 (0.1 mg/kg), or 9,10-dihydro-15d-PGJ2 (0.1 mg/kg) for 7 days. All three compounds were formulated with hydroxypropyl-β-cyclodextrin (30% w/v; Sigma; vehicle control).
# Stk^−/− mice are resistant to Friend virus infection so the leukemia developed by the transplanted mice is result of the transplanted LSCs and not FV infection. […] LSCs sorted from the spleens of FV-infected mice were transplanted into Stk^−/− mice (on a Balb/c background). After 6 weeks such mice were treated daily for 1 week with vehicle (hydroxypropyl-β-cyclodextrin), 15d-PGJ2 (0.05 mg/kg), or 9,10-dihydro-15d-PGJ2 (0.05 mg/kg) by intraperitoneal injection. The mice were sacrificed 51 days post LSC transplantation for analysis. An analysis of spleens of mice comparing splenomegaly in vehicle, 15d-PGJ2, or 9,10-dihydro-15d-PGJ2 treated transplanted mice was performed. Spleen weight compared to control (untransplanted mice) after treatment and WBC counts in the peripheral blood of the mice after treatment were examined, and a flow cytometric analysis of the spleen of untransplanted and LSC transplanted mice after treatment was performed. All data were mean±s.e.m. *p<0.05 compared to control or 9,10-dihydro-15d-PGJ2 treated groups. N=5 per group.
# NF-κB = NF-κB gel shift in LPS-treated RAW264.7 macrophages; type: cell-based, mouse; conditions: 0.25 or 1.0 μM, then LPS 100 ng/mL 4 h
# Description: The effect of Δ^12-PGJ3 on NF-κB and PPAPγ was examined. RAW264.7 macrophages were pretreated with DMSO, Δ^12-PGJ3 at 0.25, or 1.0 μM and subsequently stimulated with 100 ng/mL E. coli LPS for 4 h. The nuclear extracts were prepared and the binding of NΦκB to a ^32P-labeled consensus double stranded oligonucleotide probe was examined using gel shift analysis. NS=non-specific band. Lanes 1-5 represent untreated, LPS alone, DMSO+LPS, Δ^12-PGJ3 (0.25 μM)+LPS, and Δ^12-PGJ3 (1 μM)+LPS, respectively. BCR-ABL LSCs were sorted from spleens, plated, and treated with PBS, 25 nM Δ^12-PGJ3, or 9,10-dihydro 15d-PGJ2 for 0, 2 or 6 h. The cells were harvested and nuclear extracts were prepared using standard techniques. Ten μg of nuclear protein was used from each sample for the gel-shift reaction. As a positive control for NF-κB, nuclear extract from LPS-treated murine (RAW264.7) macrophages was used. Anti-p50 Ab was used with this positive control for a supershift, and excess ‘cold’ probe was used with the positive control as a ‘cold competitor’. A Western blot analysis was performed of the above-mentioned nuclear extracts from BCR-ABL LSCs treated with PBS, Δ^12-PGJ3 or 9,10-dihydro-15d-PGJ2 for various time periods (0-6 h) probed with anti-p65 and anti-β-actin antibodies. […]
# [3] = target: T1, ligand-binding domain of human PPAPγ fused to yeast GAL4 DNA binding domain (Homo sapiens, UniProt P37231); experiment: PPARγ reporter assay in HEK293T cells (GAL4 fusion, pGalRE-Luc); type: cell-based; conditions: 0.01 μM to 1.0 μM
# T1 construct: expressed in transfected cells; host or cells: HEK293T
# T1 sequence (P37231 238-503 limits assumed): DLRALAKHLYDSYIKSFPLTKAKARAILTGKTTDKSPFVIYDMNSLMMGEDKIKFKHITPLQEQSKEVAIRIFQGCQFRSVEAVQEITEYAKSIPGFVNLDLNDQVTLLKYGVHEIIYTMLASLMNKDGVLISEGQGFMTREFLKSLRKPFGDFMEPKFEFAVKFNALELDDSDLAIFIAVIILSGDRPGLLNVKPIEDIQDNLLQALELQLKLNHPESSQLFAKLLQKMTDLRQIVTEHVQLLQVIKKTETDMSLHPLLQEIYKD
compound,measurement,setting,value
"CC/C=C\C[C@H](O)C/C=C1/C(=O)C=C[C@@H]1C/C=C\CCCC(=O)O [Δ^12-PGJ3, Δ^12-prostaglandin J3]",apoptosis of AML LSCs (Annexin V+ fraction of CD34+CD38−CD123+ cells),"[1]; 100 nM, 6 h, patients #100810, #123009, #033107, #041909, #101308",targeted the LSCs in all these samples
same,apoptosis of primary human AML cells (Annexin V+),"[1]; 100 nM, 6 and 12 hrs",induces apoptosis of primary human AML cells
same,apoptosis of primary AML cells from bone marrow of an AML patient (72% CD133+),"[1]; 5, 50, 100 nM, 6 and 24 h, annexin V",effective even in human primary leukemia stem cells
same,"splenomegaly, WBC counts and LSCs in secondary recipients",residual FV-LSCs,failed to develop splenomegaly or high WBC counts and lacked LSCs in their spleens
same,leukocyte counts,"[2]; 0.025 mg/kg and 0.05 mg/kg, 1 week",concomitant decrease in leukocyte counts
same,"hematocrit, WBC counts and reticulocyte counts","[2]; FV-induced leukemia, FIG. 3C",significantly decreased
same,LSCs (M34+Sca1+Kit+) in the spleen,[2]; flow cytometry after 1 week i.p. treatment,complete ablation
same,hematological parameters (complete blood counts) versus untransplanted control mice,"[2]; mouse, in vivo",does not adversely affect hematological parameters
same,pChk2 levels in total spleen extracts,"[2]; mouse, in vivo",increase in the levels of pChk2
same,splenomegaly,"[2]; Δ^12-PGJ3 0.025 and 0.05 mg/kg, comparators 0.05 mg/kg, i.p. 1 week",significantly decreased splenomegaly
same,"NF-κB pathway, gel shift",NF-κB,did not affect the NF-κB pathway
same,PPARγ activation in reporter assay,[3],unable to activate PPARγ
